Values quoted from earlier work, collected in paper PMC10318822, “Phase 1 dose-escalation study to evaluate the safety, tolerability, pharmacokinetics, and anti-tumor activity of FCN-159 in adults with neurofibromatosis type 1-related unresectable plexiform neurofibromas” (BMC Medicine, 2023).

What was measured:
CYP3A4 = system: CYP3A4; parameters: method as in PMID 36755948; conditions: in vitro study; cited from earlier work
[1] = system: RAS-mutant tumor cell lines; parameters: method as in doi:10.1158/1538-7445.AM2020-1951; conditions: selected RAS-mutant tumor cell lines; cited from earlier work
[2] = system: xenograft models (including human melanoma A375); parameters: method as in doi:10.1158/1538-7445.AM2020-1951; conditions: nude mouse xenograft models (including human melanoma A375); cited from earlier work
[3] = system: patients with advanced NRAS mut+ melanoma; parameters: method as in PMID 36113242; conditions: cited from earlier work

**Q.** For `Cn1c(=O)c(F)c(Nc2ccc(I)cc2F)c2c(=O)n(C3CC3)nc(-c3cccc(NS(=O)(=O)C4CC4)c3)c21` [FCN-159], which Metabolism (CYP3A4) is on record?
**A.** The Metabolism was “metabolized primarily by CYP3A4”.

**Q.** What about the Cell proliferation [1] of the same compound?
**A.** The Cell proliferation was “inhibiting cell proliferation”.

**Q.** What about the Tumor growth [2] of the same compound?
**A.** The Tumor growth was “Anti-tumor activity was observed”.

**Q.** What about the “DLTs or SAEs” value ([3]; 6 mg or lower, as of October 20, 2020, dose escalated from 0.2 mg to 15 mg) of the same compound?
**A.** The value was “no DLTs or SAEs were observed”.

**Q.** And the Tolerability ([3]; first-in-human study, NRAS mut+ melanoma)?
**A.** Its Tolerability is “well tolerated”.

**Q.** And the RP2D ([3]; phase 1a study, advanced NRAS mut+ melanoma)?
**A.** Its RP2D is 12 mg.
